# Experimental data as given in paper PMC7281072 (Cancers, 2020).
# Legend:
# ERK1,2 phosphorylation [1] = assay: ERK1/2 phosphorylation ELISA, SK-OV-3 cells; assay type: cell-based, human; details: for Vmax ± SE, pERK 1/2 inhibition: Michaelis Menten model; for IC50: Homo sapiens, read-out: IC50, pERK 1/2 inhibition
# AKT1,2 phosphorylation [2] = assay: AKT phosphorylation ELISA, OVCAR-3 cells; assay type: cell-based, human; details: for Vmax ± SE, pAKT 1/2 inhibition: Michaelis Menten model; for IC50: Homo sapiens, read-out: IC50, pAKT 1/2 inhibition
# [3] = tested on: SKOV-3 human ovarian adenocarcinoma xenograft; parameters: species or system CB17 SCID mice; details: mouse, in vivo
# pAKT = assay: Western immunoblotting densitometry, pAKT, OVCAR-3 cells; assay type: cell-based, human; details: 25 μM; for ratio [pAKT]/[GAPDH] band intensity: OVCAR-3 cells; for ratio [pAKT]/[GAPDH] band intensity, single blot (panel A): panel A upper set, cell line not given, control ratio 1.21
# OVCAR-3 cancer cell line = assay: cells; details: Homo sapiens, OVCAR-3, 48 h
# ERK1,2 phosphorylation [4] = assay: ERK1/2 phosphorylation ELISA, OVCAR-5 cells; assay type: cell-based, human; details: for Vmax ± SE, pERK 1/2 inhibition: Michaelis Menten model; for IC50: Homo sapiens, read-out: IC50, pERK 1/2 inhibition
# pERK1,2 = assay: Western immunoblotting densitometry, pERK1,2, OVCAR-3 cells; assay type: cell-based, human; details: 25 μM; for ratio [pERK1+pERK2]/[GAPDH] band intensity: OVCAR-3 cells; for ratio [pERK1+pERK2]/[GAPDH] band intensity, single blot (panel A): panel A upper set, cell line not given
# ERK1,2 phosphorylation [5] = assay: ERK1/2 phosphorylation ELISA, UWB1.289 cells; assay type: cell-based, human; details: for Vmax ± SE, pERK 1/2 inhibition: Michaelis Menten model; for IC50: Homo sapiens, read-out: IC50, pERK 1/2 inhibition
# AKT1,2 phosphorylation [6] = assay: AKT phosphorylation ELISA, UWB1.289+BRCA1 cells; assay type: cell-based, human; parameters: Vmax ± SE, pAKT 1/2 inhibition: unit not given beside the values; details: for Vmax ± SE, pAKT 1/2 inhibition: Michaelis Menten model; for IC50: Homo sapiens, read-out: IC50, pAKT 1/2 inhibition
smiles,measurement,setting,value
"C[C@]12CC[C@@H]3c4ccc(OC(=O)CCOc5ccc(N(CCCl)CCCl)cc5)cc4CC[C@H]3[C@@H]1CCC(=O)N2 [ENGA-L08E, 12a-methyl-2-oxo-1,2,3,4,4a,4b,5,6,10b,11,12,12a-dodecahydronaphtho[2,1-f]quinolin-8-yl 3-(4-(bis (2-chloroethyl)amino)phenoxy) propanoate]","Vmax ± SE, pERK 1/2 inhibition","ERK1,2 phosphorylation [1]; 15 min",45.92 ± 2.07
same,"Vmax ± SE, pERK 1/2 inhibition","ERK1,2 phosphorylation [1]; 30 min",71.49 ± 0.55
same,"Vmax ± SE, pERK 1/2 inhibition","ERK1,2 phosphorylation [1]; 60 min",74.32 ± 0.43
same,IC50,"ERK1,2 phosphorylation [1]; 0.25 h, 15 min",> 50 µM
same,IC50,"ERK1,2 phosphorylation [1]; 0.5 h, 30 min",11.2 µM
same,IC50,"ERK1,2 phosphorylation [1]; 1 h, 60 min",7.67 µM
same,"Vmax ± SE, pAKT 1/2 inhibition","AKT1,2 phosphorylation [2]; 15 min",65.97 ± 1.60
same,"Vmax ± SE, pAKT 1/2 inhibition","AKT1,2 phosphorylation [2]; 30 min",75.64 ± 0.99
same,"Vmax ± SE, pAKT 1/2 inhibition","AKT1,2 phosphorylation [2]; 60 min",78.39 ± 4.18
same,IC50,"AKT1,2 phosphorylation [2]; 0.25 h, 15 min",> 50 µM
same,IC50,"AKT1,2 phosphorylation [2]; 0.5 h, 30 min",12.8 µM
same,IC50,"AKT1,2 phosphorylation [2]; 1 h, 60 min",14.2 µM
same,Median Overall Survival (OS),[3],105 days
same,Progression Free Survival (PFS),[3],13 days
same,Response Rate (RR),[3],100%
same,Cures (mice alive for 120 days after tumor inoculation),[3]; ip,2/5
same,MST (mean survival time),[3]; ip,76.5 ± 3.9 p < 0.01 Days
same,T/C% (mean survival time of treated versus saline controls),[3]; ip,187.9%
same,TI% (Tumor Inhibition),[3]; ip,76.4%
same,size of the primary tumor,[3]; ip,390 ± 21.4 mm^3
same,TGI (Total Growth Inhibition),SK-OV-3 cancer cell line,76 ± 7.2 μΜ
same,ratio [pAKT]/[GAPDH] band intensity,"pAKT; 30min, control ratio 1.23",0.93
same,ratio [pAKT]/[GAPDH] band intensity,"pAKT; 1h, control ratio 1.14",0.60
same,ratio [pAKT]/[GAPDH] band intensity,"pAKT; 3h, control ratio 1.27",0.52
same,ratio [pAKT]/[GAPDH] band intensity,"pAKT; 6h, control ratio 1.26",0.47
same,ratio [pAKT]/[GAPDH] band intensity,"pAKT; 12h, control ratio 1.18",0.48
same,ratio [pAKT]/[GAPDH] band intensity,"pAKT; 24h, control ratio 1.29",0.54
same,"ratio [pAKT]/[GAPDH] band intensity, single blot (panel A)",pAKT; 1h,0.40
same,"ratio [pAKT]/[GAPDH] band intensity, single blot (panel A)",pAKT; 3h,0.34
same,GI50,OVCAR-3 cancer cell line; read-out: GI50 (50% Growth Inhibition),30 ± 2.1 µM
same,IC50,OVCAR-3 cancer cell line; read-out: IC50 (cytotoxic effect),56 ± 3.2 µM
same,"Vmax ± SE, pERK 1/2 inhibition","ERK1,2 phosphorylation [4]; 15 min",63.85 ± 3.62
same,"Vmax ± SE, pERK 1/2 inhibition","ERK1,2 phosphorylation [4]; 30 min",67.94 ± 4.54
same,"Vmax ± SE, pERK 1/2 inhibition","ERK1,2 phosphorylation [4]; 60 min",69.19 ± 2.95
same,IC50,"ERK1,2 phosphorylation [4]; 0.25 h, 15 min",32.4 µM
same,IC50,"ERK1,2 phosphorylation [4]; 0.5 h, 30 min",17 µM
same,IC50,"ERK1,2 phosphorylation [4]; 1 h, 60 min",10.9 µM
same,ratio [pERK1+pERK2]/[GAPDH] band intensity,"pERK1,2; 30min, control ratio 1.71",1.01
same,ratio [pERK1+pERK2]/[GAPDH] band intensity,"pERK1,2; 1h, control ratio 1.65",0.94
same,ratio [pERK1+pERK2]/[GAPDH] band intensity,"pERK1,2; 3h, control ratio 1.99",0.83
same,ratio [pERK1+pERK2]/[GAPDH] band intensity,"pERK1,2; 6h, control ratio 1.85",0.76
same,ratio [pERK1+pERK2]/[GAPDH] band intensity,"pERK1,2; 12h, control ratio 1.82",0.76
same,ratio [pERK1+pERK2]/[GAPDH] band intensity,"pERK1,2; 24h, control ratio 1.92",0.84
same,"ratio [pERK1+pERK2]/[GAPDH] band intensity, single blot (panel A)","pERK1,2; 1h, control ratio 1.85",0.51
same,"ratio [pERK1+pERK2]/[GAPDH] band intensity, single blot (panel A)","pERK1,2; 3h, control ratio 1.85",0.28
same,"Vmax ± SE, pERK 1/2 inhibition","ERK1,2 phosphorylation [5]; 15 min",73.97 ± 1.64
same,"Vmax ± SE, pERK 1/2 inhibition","ERK1,2 phosphorylation [5]; 60 min",88.83 ± 2.13
same,IC50,"ERK1,2 phosphorylation [5]; UWB1289, 0.25 h, 15 min",7.02 µM
same,IC50,"ERK1,2 phosphorylation [5]; UWB1289, 0.5 h, 30 min",4.25 µM
same,IC50,"ERK1,2 phosphorylation [5]; UWB1289, 1 h, 60 min",3.67 µM
same,"Vmax ± SE, pAKT 1/2 inhibition","AKT1,2 phosphorylation [6]; 15 min",57.59 ± 1.42
same,"Vmax ± SE, pAKT 1/2 inhibition","AKT1,2 phosphorylation [6]; 30 min",60.90 ± 3.82
same,"Vmax ± SE, pAKT 1/2 inhibition","AKT1,2 phosphorylation [6]; 60 min",63.84 ± 5.49
same,IC50,"AKT1,2 phosphorylation [6]; 0.25 h, 15 min",36.2 µM
same,IC50,"AKT1,2 phosphorylation [6]; 0.5 h, 30 min",26.6 µM
